In patent US8513280B2, “Use of epothilones in the treatment of neuronal connectivity defects such as schizophrenia and autism” (Institut National de la Sante et de la Recherche Medicale, priority 2004, dated 2013):
Values joined by “and” are separate entries in the source; they are usually repeats but may differ in a detail not shown here. Equal values may be shown once.

Tests used:
Format in all cases: in vivo, mouse
[1] = tested on: WT mice; experiment: Maternal behaviour: nest building and pup retrieving, WT mice; details: example II
Description: (§1) For maternal behaviour, STOP deficient or control wild type (WT) female mice, nulliparous, 8 weeks old, were treated either with a placebo (carrier alone), or with epothilone D.
(§2) The maternal behaviour of treated and untreated mice was monitored by assaying the mouse ability to build a nest and to retrieve pups
(§3) For assessment of nesting capacity, the tested mouse was placed in a 240×240×120 mm cage containing litter and provided with a Kleenex tissue folded in 4 (final dimensions, 100×100 mm). After 60 hours, the mouse ability to use the paper and to build a nest was scored as follows:
(§4) Tissue use score: 0, the Kleenex tissue remained folded; 1, the tissue has been unfolded but not shredded; 2 the tissue was shredded.
(§5) Nest building score: 0, no attempt to build a nest; 1, primitive flat nest of uncontrolled shape; 2, true nest, the paper is mixed with litter to form a circular nest, less than 80 mm in diameter.
(§6) For assessment of retrieving: following the nest building test, mice were trained and assessed for pup retrieving as in Andrieux et al. (Genes Dev. 2002 Sep. 15; 16(18):2350-64. Retrieving was scored as the number of pups retrieved (0 to 3).
Finally a global score for nesting and retrieving capacity (TNR) was determined for each mouse, by adding the tissue use, nest building, and pup retrieving scores (maximal score for TNR is 7). […]

[2] = tested on: STOP deficient mice; experiment: Maternal behaviour: nest building and pup retrieving, STOP KO mice
Description: as §1, §2, §3, §4, §5, §6
Finally a global score for nesting and retrieving capacity (TNR) was determined for each mouse, by adding the tissue use, nest building, and pup retrieving scores (maximal score for TNR is 7).
The maternal behaviour of untreated and treated mice was monitored by assaying mouse ability to build a nest and to retrieve pups. Experiments were performed at 3 concentrations of epothilone D (4 mg/kg/week, 3 mg/kg/week and 0.3 mg/kg/week).
Among 69 STO KO mice, […] were treated with placebo injections, 17 were treated with 3 mg/kg/week of epothilone, and 18 were treated with 0.3 mg/kg/week of epothilone. Among 34 WT mice, 17 were treated with placebo injections, and 17 were treated with 3 mg/kg/week of epothilone.
In another series of experiments, among 19 STOP KO mice, 9 were treated with placebo injections, 10 with 4 mg/kg/week epothilone D and as control, among 20 WT mice, 10 were treated with placebo injections and 10 with 4 mg/kg/week epothilone D.

[3] = tested on: STOP deficient mice; experiment: Spontaneous activity, video-recorded during 3 h, STOP KO mice
Description: (§7) Spontaneous activity (male and female) was recorded and quantified during a three hours period of time, as in Andrieux et al., Genes Dev. 2002 Sep. 15; 16(18):2350-64. Five activities were considered: feeding, remaining still without sleeping, walking, grooming and sleeping. For each activity, the total time spent doing the activity and the number of distinct sequences of activity, were determined.
(§8) In a first series of experiments, epothilone D was injected intra-peritoneally, once a week, at either 0.3 mg/kg/week or 3 mg/kg/week for at least 8 weeks. The drug was diluted at a final concentration of 0.3 mg/ml in water, from a 50 mg/ml stock solution in DMSO.
(§9) In a second series of experiments, epothilone D was injected intra-peritoneally, in two injections a week, at a total dose of 4 mg/kg/week, for 8 weeks. The drug was diluted at a final concentration of 0.2 mg/ml in water, from a 50 mg/ml stock solution in DMSO.
(§10) Among 61 STOP KO mice, 28 were treated with placebo injections, 33 with 3 mg/kg/week of epothilone D. Among 62 WT mice, 29 were treated with placebo injections, 33 with 3 mg/kg/week of epothilone D.
(§11) In another series of experiments, among 19 STOP KO mice, 9 were treated with placebo injections, 10 with 4 mg/kg/week epothilone D. Among 20 WT mice, 10 were treated with placebo injections and 10 with 4 mg/kg/week epothilone D.

[4] = tested on: STOP KO mice; experiment: Synaptic vesicle density in CA1 hippocampal synapses (electron micrographs), STOP KO mice
Description: It reports the quantitative analysis of synaptic vesicle density in CA1 hippocampal synapses of mice treated or not with epothilone D 3 mg/kg/week or with neuroleptics (0.5 mg/kg/day haloperidol and 5 mg/kg/day chlorpromazine, in drinking water, from birth to adulthood). Synaptic vesicle density, calculated as the ratio of the number of vesicle/nerve terminal surface (after subtraction of the surface area occupied by mitochondria). Results (means+/−s.e.m.) are shown for pooled 75 measurements from five wild type mice and from five STOP KO mice either untreated or treated with Epothilone D. For neuroleptic control experiments, results (means+/−s.e.m.) are shown for pooled 75 measurements from three STOP KO mice either untreated or treated with neuroleptics.
Hippocampus was dissected out from transcardially fixed mice, sliced and embedded in Epon. To determine the surface density of synaptic vesicles, a total of cross sections of 75 synapses made of hippocampal CA1 region were photographed randomly, and the numbers of synaptic vesicles in each nerve pre-terminal were counted on the electron micrographs. Synaptic vesicles density of STOP KO mice following long term neuroleptic treatment (0.5 mg/kg/day haloperidol and 5 mg/kg/day chlorpromazine, in drinking water, from birth to adulthood) was also examined using the same protocol. […]

[5] = tested on: WT mice; experiment: Spontaneous activity, video-recorded during 3 h, WT mice
Description: as §7, §8, §9, §10, §11

[6] = tested on: STOP KO mice; experiment: Pup survival in progeny of STOP KO mothers
Description: The epothilone treatment has been then tested whether it could induce pup survival in STOP KO mothers. Nine STOP KO mice treated with Epothilone D at 0.3 mg/kg/week and eight untreated females were mated the pups survival were analysed after delivery.

[7] = STOP KO mice, 0.3 mg/kg/week i.p., FIG. 3
[8] = STOP KO mice, 3 mg/kg/week i.p., FIG. 3
[9] = STOP deficient mice, 4 mg/kg/week, FIG. 4
[10] = STOP deficient mice, 3 mg/kg/week i.p., FIG. 1-B
[11] = STOP deficient mice, 4 mg/kg/week, 8 weeks, FIG. 2

Structure (SMILES): C/C1=C/CC(/C(C)=C/c2csc(C)n2)OC(=O)CC(O)C(C)(C)C(=O)C(C)C(O)C(C)CCC1 (stereo not shown) [epothilone D]
- effect on nurturing-related behaviours [1]: no significant effect
- TNR score (global score, maximal 7) [2, 7]: highly significant increase
- nest building score (0-2) [2, 7]: improved
- paper use score (tissue use score, 0-2) [2, 7]: improved
- pup retrieving score (0-3) [2, 7]: improved
- TNR score (global score, maximal 7) [2, 8]: highly significant increase
- nest building score (0-2) [2, 8]: improved
- paper use score (tissue use score, 0-2) [2, 8]: improved
- pup retrieving score (0-3) [2, 8]: improved
- TNR score (global score, maximal 7) ([2]; STOP KO mice, 4 mg/kg/week, rose from 1.16 without treatment, highly significant increase, FIG. 4): 4.4
- nest building score (0-2) [2, 9]: strongly improved
- paper use score (tissue use score, 0-2) [2, 9]: strongly improved
- pup retrieving score [2, 9]: tended to improve
- total number of shifts between activities ([3]; STOP KO mice, summary statement, dose not stated): decrease
- total time spent grooming ([3]; STOP deficient mice, 3 mg/kg/week i.p. once a week, at least 8 weeks, vs placebo, FIG. 1-A): decrease
- number of remaining still while awake sequences [3, 10]: reducing
- number of walking sequences [3, 10]: reducing
- total time spent sleeping ([3]; STOP deficient mice, 3 mg/kg/week i.p., vs placebo, FIG. 1-A): increase
- total number of shifts between activities ([3]; STOP deficient mice, 3 mg/kg/week i.p., vs placebo, FIG. 1-B): decreased
- total number of shifts between activities ([3]; STOP deficient mice, 4 mg/kg/week i.p. in two injections a week, 8 weeks, FIG. 2): remarkable decrease
- number of feeding sequences [3, 11]: remained unaffected
- number of grooming sequences [3, 11]: decrease
- number of sleeping sequences [3, 11]: remained unaffected
- number of walking sequences [3, 11]: decrease
- total time spent grooming [3, 11]: highly significantly diminished
- time spent sleeping ([3]; STOP deficient mice, 4 mg/kg/week, 8 weeks, trend (tended to increase), FIG. 2): increase
- time spent remaining still without sleeping ([3]; STOP deficient mice, 4 mg/kg/week, 8 weeks, trend, FIG. 2): tended to diminish
- increase of synaptic vesicle density relative to absence of treatment ([4]; CA1 hippocampal synapses, 4 mg/kg/week, p<0.001, FIG. 5): 20%
- increase of synaptic vesicle density ([4]; summary statement, dose not stated): about 20%
- number of sequences of stillness ([5]; 4 mg/kg/week, FIG. 2, said to be compatible with random fluctuations): significant increase
- effect on the recorded activities ([5]; example I (3 and 4 mg/kg/week)): no significant effect
- STOP KO females with pup survival ([6]; 0.3 mg/kg/week, nine treated STOP KO females mated, no pup survival without treatment): three out of the nine
- ratio of surviving pups to newborns ([6]; 0.3 mg/kg/week, per mouse, the three STOP KO females with surviving pups): 5/6 (2×) and 6/6
- maternal behaviour, compatible with pup survival ([6]; STOP deficient female mice, summary statement, dose not stated): re-established
